Assay results published in US10745397B2, “1-Substituted 1,2,3,4-tetrahydro-1,7-naphthyridin-8-amine derivatives and their use as EP4 receptor antagonists” (TAKEDA PHARMACEUTICAL COMPANY LIMITED, priority 2015, dated 2020).

Legend:
human EP4 receptor = biological target: T1, human EP4 receptor (Homo sapiens, UniProt P35408); assay: hEP4 radioligand binding assay ([3H] PGE2 competitive binding, membrane fractions); settings: 300 nM compound; 1 nM [3H] PGE2
T1 construct: expressed in transfected cells; host or cells: FreeStyle293 (HEK293F) cells, transient transfection with pcDNA3.1(+), total membrane fraction
T1 sequence (P35408 whole entry): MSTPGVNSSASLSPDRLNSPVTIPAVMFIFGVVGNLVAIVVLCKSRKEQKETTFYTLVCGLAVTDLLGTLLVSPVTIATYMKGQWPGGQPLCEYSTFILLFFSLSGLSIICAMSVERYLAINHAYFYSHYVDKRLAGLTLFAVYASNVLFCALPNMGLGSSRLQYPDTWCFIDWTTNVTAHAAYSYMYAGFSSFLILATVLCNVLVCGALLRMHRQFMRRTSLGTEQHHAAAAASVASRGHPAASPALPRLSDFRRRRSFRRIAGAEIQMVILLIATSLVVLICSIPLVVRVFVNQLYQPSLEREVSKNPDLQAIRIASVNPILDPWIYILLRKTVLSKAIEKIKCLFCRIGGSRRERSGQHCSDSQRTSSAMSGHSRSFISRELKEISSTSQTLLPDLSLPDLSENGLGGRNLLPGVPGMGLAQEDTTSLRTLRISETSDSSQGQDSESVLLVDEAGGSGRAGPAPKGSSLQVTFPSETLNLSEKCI
Text: The full-length coding sequences for human EP1 (NM_000955), human EP2 (NM_000956), human EP3 (NM_198717) and human EP4 (NM_000958) were cloned into pcDNA3.1(+) vector (Life Technologies, CA, USA). In order to prepare overexpressed EP 1-4 membrane in Freestyle293 cells (Life Technologies, CA, USA), the pcDNA3.1(+) vector encoding a cDNA of the relevant gene was transiently transfected into FreeStyle293 cells using 293Fectin (Life Technologies, CA, USA) according to the manufacturer instruction manual. After 2 days, cultured cells were centrifuged (1,000×g, 10 min, 4° C.) and pellets homogenized by a probe sonicator (Sonics vibracell, Sonics and Materials Inc., USA; 31% Amp, 5 sec pulse, Imin interval, 4 cycles) in ice-cold 50 mM Tris-HCl buffer (pH 7.5 at 25° C.) containing 0.5 mM EDTA, 250 mM Sucrose and 10 mM MgCl2. Cell homogenates were centrifuged (890×g, 10 min, 4° C.), and the supernatant was recovered. Total membrane fractions were isolated by ultracentrifugation (140,000×g, 60 min, 4° C.). Pellets were re-suspended in the same buffer, and stored at −80° C. until use. The protein concentration in homogenate was determined with the BCA Protein Assay Kit (Pierce Biotechnology, Inc., IL, USA) according to the manufacturer protocol.
The binding affinity of the compounds was evaluated using a competitive radioligand binding assay which measured the specific binding of [3H] PGE2 to the human EP4 receptor. Briefly, varying concentrations of NCEs were incubated with cell membrane fractions generated HEK293F cells transiently transfected with human EP4 receptor as described above. Each reaction consisted of 10 μg membrane protein and NCE in 50 mM Tris-HCl, pH-6.0 by NaOH, 10 mM MgCl2 and 0.5 mM EDTA assay buffer. Radioligand, [3H] PGE2 (American Radiochemicals Inc. Specific Activity 180 Ci/mmol), at a final of 1 nM was added to each reaction where the final assay volume was 200 μL and concentration of DMSO was adjusted to 1%. Appropriate controls included total binding in the assay (vehicle control) and control for non-specific binding. Non-specific binding was evaluated by incubating the hEP4 protein with 10 μM unlabeled PGE2 under the same assay conditions as NCEs. The reaction was incubated at room temperature for 2 hours and terminated by harvesting the reaction contents to a PEI coated GF/C filter plate (PerkinElmer). The plate was washed four times with cold 50 mM Tris-HCl, pH-7.5 wash buffer and dried at 50° C. for 2 hours or at 37° C. overnight. [3H] PGE2 bound to the protein was quantified by the addition of 25 μL of Microscint PS (PerkinElmer) and plate was read on MicroBeta2 liquid Scintillation and luminescence counter (PerkinElmer). Data was analyzed using GraphPad Prism 5 (GraphPad Software Inc., San Diego, Calif.) where non-specific binding was normalized to 0% specific binding of [3]PGE2 and vehicle control (DMSO) was normalized to 100% specific binding of [3]PGE2. Binding affinity of NCEs, Ki, was generated using One site—Fit Ki equation in GraphPad Prism 5.

[1] = biological target: T2, hEP4 (C6 glioma cells overexpressing hEP4) (Homo sapiens, UniProt P35408); assay: hEP4 cell based assay (cAMP), inhibition of PGE2 induced cAMP, HTRF; settings: 1 μM compound, PGE2 at EC80
T2 construct: host or cells: C6 glioma cells overexpressing hEP4
T2 sequence (P35408 whole entry): as above
Procedure: The functional assay for hEP4 activation and inhibition was carried out via the quantitative determination of agonist, PGE2, induced cAMP response using HTRF in a competitive immunoassay (Cisbio dynamic 2 kit). NCEs at varying concentrations were evaluated for inhibition of PGE2 induced increase in cAMP. Briefly, C6 glioma cells overexpressing hEP4 (Takeda) were cultured in DMEM (low glucose, pyruvate), 10% FBS (Gibco) and PenStep. The cells were harvested on the day of the assay, washed with HBSS+10 mM HEPES (pH 7.4)+0.1% BSA buffer and pre-incubated with varying concentrations of NCE. Each reaction contained 7000 cells and NCEs in HBSS+10 mM HEPES+0.1% BSA assay buffer along with PDE inhibitors IBMX and Ro 20-1724 (final concentration of each inhibitor […]). Following 15 min pre-incubation, the cells were treated with EC80 concentration of agonist PGE2 for 30 min to induce cAMP. Final volume of the assay was 6 μL and DMSO concentration was maintained at 1%. The reaction was terminated with the addition of cAMP labeled with the dye d2 in lysis buffer according to manufacturers' protocol. This was followed by the addition of the anti-cAMP antibody labeled with Cryptate according to the manufacturers' protocol. The reaction was incubated at room temperature in dark for 45 min and the plate was evaluated for fluorescence at 665 nm (FRET) and 620 nm (cryptate emission) on a Flexstation III microplate reader (Molecular Devices, Sunnyvale, Calif.) Ex max: 313 nm; Em1: 620 nm; Em2: 665 nm. Data was analyzed using GraphPad Prism 5 (GraphPad Software Inc., San Diego, Calif.) where cells treated with agonist (EC80) was normalized to 0% inhibition of hEP4 and cells treated with buffer (no agonist) was normalized to 100% inhibition of hEP4. IC50 of NCEs was generated using non-linear regression—Log(inhibitor) vs. response equation in GraphPad Prism 5.

| SMILES | inhibition at 0.3 µM (human EP4 receptor) | inhibition at 1 µM [1] |
| --- | --- | --- |
| C[C@H](Nc1nccc2c1N(Cc1cccc(F)c1)CCO2)c1ccc(C(=O)O)cc1 [Example B8, 4-[(1S)-1-[[4-[(3-fluorophenyl)methyl]-2,3-dihydropyrido[4,3-b][1,4]oxazin-5-yl]amino]ethyl]benzoic acid] | 97% | 100% |
| C[C@H](Nc1nccc2c1N(Cc1ccc(F)cc1)CCO2)c1ccc(C(=O)O)cc1 [Example B9, 4-[(1S)-1-[[4-[(4-fluorophenyl)methyl]-2,3-dihydropyrido[4,3-b][1,4]oxazin-5-yl]amino]ethyl]benzoic acid] | 97% | 100% |
| Cc1cccc(CN2CCOc3ccnc(N[C@@H](C)c4ccc(C(=O)O)cc4)c32)c1 [Example B10, 4-[(1S)-1-[[4-(m-tolylmethyl)-2,3-dihydropyrido[4,3-b][1,4]oxazin-5-yl]amino]ethyl]benzoic acid] | 97% | 100% |
| Cc1ccc(CN2CCOc3ccnc(N[C@@H](C)c4ccc(C(=O)O)cc4)c32)cc1 [Example B11, 4-[(1S)-1-[[4-(p-tolylmethyl)-2,3-dihydropyrido[4,3-b][1,4]oxazin-5-yl]amino]ethyl]benzoic acid] | 95% | 100% |
| COc1cccc(CN2CCOc3ccnc(N[C@@H](C)c4ccc(C(=O)O)cc4)c32)c1 [Example B12, 4-[(1S)-1-[[4-[(3-methoxyphenyl)methyl]-2,3-dihydropyrido[4,3-b][1,4]oxazin-5-yl]amino]ethyl]benzoic acid] | 98% | 100% |
| C[C@H](Nc1nccc2c1N(Cc1cc(F)cc(F)c1)CCO2)c1ccc(C(=O)O)cc1 [Example B13, 4-[(1S)-1-[[4-[(3,5-difluorophenyl)methyl]-2,3-dihydropyrido[4,3-b][1,4]oxazin-5-yl]amino]ethyl]benzoic acid] | 92% | 100% |
| C[C@H](Nc1nccc2c1N(Cc1cccc(C(F)(F)F)c1)CCO2)c1ccc(C(=O)O)cc1 [Example B14, 4-[(1S)-1-[[4-[[3-(trifluoromethyl)phenyl]methyl]-2,3-dihydropyrido[4,3-b][1,4]oxazin-5-yl]amino]ethyl]benzoic acid] | 93% | 100% |
| COc1ccc(CN2CCOc3ccnc(N[C@@H](C)c4ccc(C(=O)O)cc4)c32)cc1 [Example B15, 4-[(1S)-1-[[4-[(4-methoxyphenyl)methyl]-2,3-dihydropyrido[4,3-b][1,4]oxazin-5-yl]amino]ethyl]benzoic acid] | 98% | 99% |
| O=C(O)c1ccc(C2(Nc3nccc4c3N(Cc3cccc(F)c3)CCO4)CC2)cc1 [Example B16, 4-[1-[[4-[(3-fluorophenyl)methyl]-2,3-dihydropyrido[4,3-b][1,4]oxazin-5-yl]amino]cyclopropyl]benzoic acid] | 93% | 88% |
| O=C(O)c1ccc(C2(Nc3nccc4c3N(Cc3cc(F)cc(F)c3)CCO4)CC2)cc1 [Example B17, 4-[1-[[4-[(3,5-difluorophenyl)methyl]-2,3-dihydropyrido[4,3-b][1,4]oxazin-5-yl]amino]cyclopropyl]benzoic acid] | 96% | 86% |

The next lines start with the values.

| inhibition at 0.3 µM (human EP4 receptor) | inhibition at 1 µM [1] | SMILES |
| --- | --- | --- |
| 93% | 79% | O=C(O)c1ccc(C2(Nc3nccc4c3N(Cc3ccc(F)cc3)CCO4)CC2)cc1 [Example B18, 4-[1-[[4-[(4-fluorophenyl)methyl]-2,3-dihydropyrido[4,3-b][1,4]oxazin-5-yl]amino]cyclopropyl]benzoic acid] |
| 92% | 81% | O=C(O)c1ccc(C2(Nc3nccc4c3N(Cc3ccc(Cl)cc3)CCO4)CC2)cc1 [Example B19, 4-[1-[[4-[(4-chlorophenyl)methyl]-2,3-dihydropyrido[4,3-b][1,4]oxazin-5-yl]amino]cyclopropyl]benzoic acid] |
| 92% | 92% | O=C(O)c1ccc(C2(Nc3nccc4c3N(Cc3ccc(C(F)(F)F)cc3)CCO4)CC2)cc1 [Example B20, 4-[1-[[4-[[4-(trifluoromethyl)phenyl]methyl]-2,3-dihydropyrido[4,3-b][1,4]oxazin-5-yl]amino]cyclopropyl]benzoic acid] |
| 87% | 87% | COc1ccc(CN2CCOc3ccnc(NC4(c5ccc(C(=O)O)cc5)CC4)c32)cc1 [Example B21, 4-[1-[[4-[(4-methoxyphenyl)methyl]-2,3-dihydropyrido[4,3-b][1,4]oxazin-5-yl]amino]cyclopropyl]benzoic acid] |
| 80% | 90% | O=C(O)c1ccc(C2(Nc3nccc4c3N(Cc3ccccc3)CCO4)CC2)cc1 [Example B22, 4-[1-[(4-benzyl-2,3-dihydropyrido[4,3-b][1,4]oxazin-5-yl)amino]cyclopropyl]benzoic acid] |
| 100% | 74% | COc1cccc(CN2CCOc3ccnc(NC4(c5ccc(C(=O)O)cc5)CC4)c32)c1 [Example B23, 4-[1-[[4-[(3-methoxyphenyl)methyl]-2,3-dihydropyrido[4,3-b][1,4]oxazin-5-yl]amino]cyclopropyl]benzoic acid] |
| 100% | 71% | O=C(O)c1ccc(C2(Nc3nccc4c3N(Cc3cccc(Cl)c3)CCO4)CC2)cc1 [Example B24, 4-[1-[[4-[(3-chlorophenyl)methyl]-2,3-dihydropyrido[4,3-b][1,4]oxazin-5-yl]amino]cyclopropyl]benzoic acid acid] |
| 98% | 79% | Cc1cccc(CN2CCOc3ccnc(NC4(c5ccc(C(=O)O)cc5)CC4)c32)c1 [Example B25, 4-[1-[[4-(m-tolylmethyl)-2,3-dihydropyrido[4,3-b][1,4]oxazin-5-yl]amino]cyclopropyl]benzoic acid] |
| 93% | 87% | Cc1ccc(CN2CCOc3ccnc(NC4(c5ccc(C(=O)O)cc5)CC4)c32)cc1 [Example B26, 4-[1-[[4-(p-tolylmethyl)-2,3-dihydropyrido[4,3-b][1,4]oxazin-5-yl]amino]cyclopropyl]benzoic acid] |
| 100% | 96% | C[C@H](Nc1nccc2c1N(Cc1ccc3ccccc3c1)CCO2)c1ccc(C(=O)O)cc1 [Example B29, 4-[(1S)-1-[[4-(2-naphthylmethyl)-2,3-dihydropyrido[4,3-b][1,4]oxazin-5-yl]amino]ethyl]benzoic acid] |
